According to US20160304556A1, “[…] ACTIVE COMPOUNDS AND THEIR METHODS OF USE” (AGIOS PHARMACEUTICALS, INC, priority 2012, published 2016):

How the values were obtained:
IDH1 R132C = IDH1 R132C (Homo sapiens, UniProt O75874, R132C); assay: In vitro NADPH depletion assay for IDH1m R132C inhibitors; assay type: biochemical; conditions: enzyme, diaphorase/resazurin readout, read-out: IDH R132C IC50
Procedure: A test compound is prepared as 10 mM stock in DMSO and diluted to 50× final concentration in DMSO, for a 50 μl reaction mixture. IDH enzyme activity converting alpha-ketoglutarate to 2-hydroxyglutaric acid is measured using a NADPH depletion assay. In the assay the remaining cofactor is measured at the end of the reaction with the addition of a catalytic excess of diaphorase and resazurin, to generate a fluorescent signal in proportion to the amount of NADPH remaining. IDH1-R132 homodimer enzyme is diluted to […] in 40 μl of Assay Buffer(150 mM NaCl, 20 mM Tris-Cl pH 7.5, 10 mM MgCl2, 0.05% BSA, 2 mM b-mercaptoethanol); 1 μl of test compound dilution in DMSO is added and the mixture is incubated for 60 minutes at room temperature. The reaction is started with the addition of 10 μl of Substrate Mix ([…], 5 mM alpha-ketoglutarate, in Assay Buffer) and the mixture is incubated for 90 minutes at room temperature. The reaction is terminated with the addition of 25 μl of Detection Buffer (36 μg/ml diaphorase, […], in 1× Assay Buffer), and is incubated for 1 minute before reading on a SpectraMax platereader at Ex544/Em590.
Compounds are assayed for their activity against IDH1 R132C following the same assay as above with the following modifications: Assay Buffer is (50 mM potassium phosphate, pH 6.5; 40 mM sodium carbonate, 5 mM MgCl2, 10% glycerol, 2 mM b-mercaptoethanol, and 0.03% BSA). The concentration of NADPH and alpha-ketoglutarate in the Substrate Buffer is 20 μM and 1 mM, respectively.
Representative compounds of formula I set forth in Table 1 were tested in this assay and the results are set forth below in Table 3.

HT1080 cells = assay: Cellular assay, inhibition of 2-HG production (LC-MS) in HT1080 cells; assay type: cell-based; conditions: Homo sapiens, HT-1080, 48 hours, LC-MS of media
Outline: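 HT1080 cells (5000/well) were incubated 48 hours with compound, 0.2% DMSO final. Medium 2-HG was quantified by LC-MS, and IC50 was taken as the concentration giving 50% reduction versus DMSO control. Viability was read by CellTiter-Glo luminescence at 72 hours.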

IDH1 R132H = IDH1 R132H (Homo sapiens, UniProt O75874, R132H); assay: In vitro NADPH depletion assay for IDH1m R132H inhibitors; assay type: biochemical; conditions: enzyme, diaphorase/resazurin readout, read-out: IDH R132H IC50
Sequence of IDH1 R132H (O75874 whole entry R132H): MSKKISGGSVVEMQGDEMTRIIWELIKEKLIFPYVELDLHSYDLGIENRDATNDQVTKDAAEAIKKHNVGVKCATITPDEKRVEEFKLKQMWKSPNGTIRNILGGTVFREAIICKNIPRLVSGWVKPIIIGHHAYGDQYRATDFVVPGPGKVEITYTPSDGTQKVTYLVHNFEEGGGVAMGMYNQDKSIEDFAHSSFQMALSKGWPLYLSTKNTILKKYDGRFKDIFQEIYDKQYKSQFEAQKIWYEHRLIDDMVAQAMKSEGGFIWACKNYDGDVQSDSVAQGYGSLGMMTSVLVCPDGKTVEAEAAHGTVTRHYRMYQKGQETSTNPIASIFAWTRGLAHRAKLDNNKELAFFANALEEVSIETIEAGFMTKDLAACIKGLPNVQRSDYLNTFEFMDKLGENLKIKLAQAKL
Outline: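 IDH1-R132H homodimer […] was preincubated with compound for 60 min at room temperature in 20 mM Tris-Cl pH 7.5, 150 mM NaCl, 10 mM MgCl2, 0.05% BSA, 2 mM b-mercaptoethanol. Substrate mix (NADPH, 5 mM alpha-ketoglutarate) then reacted for 90 min. Remaining NADPH was read by diaphorase/resazurin fluorescence at Ex544/Em590.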

Sequence of IDH1 R132C (O75874 whole entry R132C): as the sequence (O75874 whole entry R132H) above, with H132C counted along it

| Structure (SMILES) | IC50 (IDH1 R132C) [nM] | IC50 (HT1080 cells) [nM] | IC50 (IDH1 R132H) [nM] |
| --- | --- | --- | --- |
| CC(C)OC(=O)NCC(=O)N(c1cccc(F)c1)C(C(=O)NC1CC(F)(F)C1)c1ccccc1Cl (stereo not drawn) [Compound 74] | 100 to 500 | 1000 to 2000 | 100 to 500 |
| COC(=O)NCC(=O)N(c1cccc(F)c1)C(C(=O)NC1CCC(F)(F)CC1)c1ccccc1Cl (stereo not drawn) [Compound 92] | ≤ 100 | 100 to 500 | ≤ 100 |
| COC(=O)N(C)CC(=O)N(c1cccc(F)c1)C(C(=O)NC1CC(F)(F)C1)c1ccccc1Cl (stereo not drawn) [Compound 96] | 100 to 500 | 500 to 1000 | ≤ 100 |
| COC(=O)N[C@@H](CO)C(=O)N(c1cccc(F)c1)[C@H](C(=O)NC1CCCCC1)c1ccccc1Cl [Compound 84] | ≤ 100 | 100 to 500 | ≤ 100 |
| COC(=O)NCC(=O)N(c1cccc(F)c1)C(C(=O)NC1CCC(F)CC1)c1ccccc1Cl (stereo not drawn) [Compound 81] | 100 to 500 | 100 to 500 | 100 to 500 |
| O=C(NC1CC(F)(F)C1)[C@H](c1ccccc1Cl)N(C(=O)[C@@H]1C[C@@H](O)CN1c1ncccn1)c1cccc(F)c1 [Compound 100, (2S,4R)—N—((S)-1-(2-chlorophenyl)-2-(3,3-difluorocyclobutyl-amino)-2-oxoethyl)-N-(3-fluorophenyl)-4-hydroxy-1-(pyrimidin-2-yl)pyrrolidine-2-carbox-amide] | ≤ 100 | 100 to 500 | ≤ 100 |
| COC(=O)N1CC[C@H](O)[C@H]1C(=O)N(c1cccc(F)c1)[C@H](C(=O)NC1CC(F)(F)C1)c1ccccc1Cl [Compound 91] | 100 to 500 | 100 to 500 | ≤ 100 |
| C[C@H]1CC[C@@H](C(=O)N(c2cccc(F)c2)[C@H](C(=O)NC2CCC(F)(F)CC2)c2ccccc2Cl)N1c1ncccn1 [Compound 111, (2S,5S)—N—((S)-1-(2-chlorophenyl)-2-(4,4-difluorocyclohexylamino)-2-oxoethyl)-N-(3-fluorophenyl)-5-methyl-1-(pyrimidin-2-yl)pyrrolidine-2-carboxamide] | ≤ 100 | 100 to 500 | ≤ 100 |
| CC(C)(C)OC(=O)NCC(=O)N(c1cccc(F)c1)C(C(=O)NC1CCC(F)(F)CC1)c1ccccc1Cl (stereo not drawn) [Compound 93] | 100 to 500 | 1000 to 2000 | 100 to 500 |
| O=C(NC1CCC(F)(F)CC1)C(c1ccccc1Cl)N(C(=O)CNc1ncccc1F)c1cccc(F)c1 (stereo not drawn) [Compound 48] | ≤ 100 | 100 to 500 | ≤ 100 |
| COC(=O)N1[C@H](C(=O)N(c2cccc(F)c2)[C@H](C(=O)NC2CC(F)(F)C2)c2ccccc2Cl)CCC1(C)C (single isomer, unassigned) [Compound 115] | 100 to 500 | 500 to 1000 | 100 to 500 |
| O=C(NC1CCCCC1)C(c1ccc(F)cc1F)N(C(=O)Cn1cnc(Cl)c1Cl)c1cccc(F)c1 (stereo not drawn) [Compound 29] | ≤ 100 | 100 to 500 | ≤ 100 |
| CCOC(=O)NCC(=O)N(c1cccc(F)c1)C(C(=O)NC1CC(F)(F)C1)c1ccccc1Cl (stereo not drawn) [Compound 75] | 100 to 500 | 500 to 1000 | 100 to 500 |
